From publication PMC3058872 (Archives of biochemistry and biophysics, 2010) come the findings set out here.

The structures appear in SMILES notation.

Assay [1] has as its target T1, EI^Ntr (Enzyme I^Ntr) (Escherichia coli, UniProt P37177, H356A). Nature of the assay: intrinsic Trp fluorescence titration. Format: binding.
The target of assay [2] is T1, EI^Ntr (Enzyme I^Ntr). The experiment in a line: thermal unfolding followed by Trp fluorescence. The following applies: hydrogenated protein, 150 μM PEP, 20 mM Tris-Cl pH 8, 2 mM MgCl2, scan 30 °C/h. In kind it is binding.

T1 sequence (P37177 170-748 H356A limits assumed): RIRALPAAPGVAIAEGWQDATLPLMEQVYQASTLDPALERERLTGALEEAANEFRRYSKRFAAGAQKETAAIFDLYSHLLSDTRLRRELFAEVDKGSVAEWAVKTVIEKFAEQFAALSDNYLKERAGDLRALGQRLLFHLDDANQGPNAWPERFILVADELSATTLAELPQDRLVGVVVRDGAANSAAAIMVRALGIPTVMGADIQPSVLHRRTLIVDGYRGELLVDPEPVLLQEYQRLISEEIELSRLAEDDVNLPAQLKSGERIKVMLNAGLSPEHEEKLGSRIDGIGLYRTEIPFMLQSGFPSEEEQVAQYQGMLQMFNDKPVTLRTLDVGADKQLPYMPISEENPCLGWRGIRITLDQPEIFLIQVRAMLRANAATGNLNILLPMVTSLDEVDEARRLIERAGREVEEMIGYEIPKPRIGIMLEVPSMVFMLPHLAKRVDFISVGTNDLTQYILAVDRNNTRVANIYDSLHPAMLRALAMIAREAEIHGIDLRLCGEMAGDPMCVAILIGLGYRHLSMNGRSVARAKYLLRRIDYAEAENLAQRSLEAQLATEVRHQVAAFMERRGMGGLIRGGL

As usually defined, the Kd is the constant that tells how readily two partners part at equilibrium. A high value points to lower affinity. The molecule `C=C(OP(=O)(O)O)C(=O)O` [PEP] returned a Kd at EI^Ntr (Enzyme I^Ntr) [1] of 21 µM. The “stabilization due to PEP binding (dTm)” value at EI^Ntr (Enzyme I^Ntr) [2] is 4.04 °C.
